# In patent publication US20260240820A1, “METHOD FOR CONTROLLING MEMBRANE POTENTIAL-DEPENDENT ION CHANNEL THROUGH TYPE I TASTE RECEPTORS (T1RS)” (ION CHAT RESEARCH CORPORATE, priority 2022, published 2026):
# Entries after “also recorded” stand apart in the source; their conditions may differ. Read-outs that look alike come from different tables or passages of the source.
# Assays:
# [1] = tested on: Nav1.6; assay: Patch-clamp recording of VGSC current in HEK (Nav1.6) cells; format: cell-based, human
# Text: The cells used in the previous (18-1) experiment were cardiac-type VGSC cells. In this experiment, HEK (Nav1.1) and HEK (Nav1.6) cells, which are considered neuronal VGSC cells, were created. The effects of four peptides—Aβ25-35, Aβ1-38, Aβ1-40, and Aβ1-42—were examined using the same experimental protocol as in (18-1). […]
# [2] = tested on: Nav1.1; assay: Patch-clamp recording of VGSC current in HEK (Nav1.1) cells; format: cell-based, human
# Text: The cells used in the previous (18-1) experiment were cardiac-type VGSC cells. In this experiment, HEK (Nav1.1) and HEK (Nav1.6) cells, which are considered neuronal VGSC cells, were created. The effects of four peptides—Aβ25-35, Aβ1-38, Aβ1-40, and Aβ1-42—were examined using the same experimental protocol as in (18-1).
# [3] = tested on: VGSC; assay: Patch-clamp recording of VGSC current, cell type not specified or several cell types (summary statements); format: cell-based, human
# [4] = tested on: Kv1.2; assay: Patch-clamp recording of Kv1.2 potassium current in HEK cells expressing Kv1.2; format: cell-based, human
# Method: The effects of Aβ peptides or umami substances on sustained potassium currents (VGKC) in cardiac myocytes can be studied using HEK cells expressing VGKC (such as Kv1.2, Kv3.2, Kv3.3) as well as SH-SY5Y cells expressing endogenous T1R GPCRs. For instance, as shown in the implementation example in (FIG. 36B), Aβ peptides were applied to VGKC-expressing human cultured cells, and VGKC currents were recorded using ramp-like or rectangular voltage waveforms via the patch-clamp technique. This allowed measurement of the changes (inhibition) in VGKC currents caused by Aβ peptides. Similar inhibition studies on VGKC can be conducted using umami substance L-glutamate sodium (MSG) (FIG. 36A).
# As shown in (FIG. 37), Aβ1-42 peptide, unlike Aβ25-35 targeting T1R3, interacts with T1R1 and inhibits VGSC currents (FIGS. 37D, E).
# [5] = tested on: Nav1.5 in T1R3-silenced HEK cells; assay: VGSC current in HEK Nav1.5 cells with silenced T1R3; format: cell-based, human
# Text: The miRNAs Oligo (Thermofisher) used for silencing were annealed to form double-stranded DNA, which was then linked to the miR RNAi Expression Vector using T4 DNA ligase to create the knockdown vector. Specifically, the procedure followed the miR RNAi Expression Vector Kit manual (BLOCK-i™ Pol II miR RNAi Expression Vector Kit with EmGFP (Catalog number: K493600)).
# Since Aβ25-35 peptide produced similar effects (enhancing VGSC activity, lowering the excitability threshold) as glutamine, it was considered that Aβ25-35 peptide might also act on T1R2/T1R3 receptors like glutamine. Therefore, in this implementation example, we used HEK-Nav1.5 cells with silenced T1R3 and compared the effect of Aβ25-35 peptide on VGSC with that in control HEK-Nav1.5 cells.
# To strengthen these findings, we conducted similar experiments using HEK Nav1.5 cells in which T1R3 expression was silenced (FIG. 22). We measured VGSC currents in T1R3-silenced HEK Nav1.5 cells, applying stimuli every 8 seconds.
# [6] = tested on: Cav1.2; assay: Intracellular calcium measurement in HEK cells stably expressing Cav1.2 after KCl depolarisation; format: cell-based, human; conditions: 12.5 nM
# Method: Specifically, experiments were conducted using a method to measure intracellular calcium concentration in HEK cells stably expressing Cav1.2. […] High concentrations of KCl depolarize the cell membrane potential by depolarizing the potassium equilibrium potential from the resting potential, activating voltage-gated calcium channels (VGCC, Cav1.2) that are activated by depolarization, and allowing extracellular calcium to flow into the cell through these calcium channels. (FIG. 47A) measures the activation process of intracellular calcium increase caused by the activation of these VGCCs.
# The calcium response to high concentrations of potassium decays with a certain regularity, so the process was approximated using the Hyperbolic Decline formula
# and the difference between the curve obtained (dashed line in FIG. 47A) and the experimental values was calculated to derive the enhancement of intracellular calcium by Aβ1-42 peptide.
# [7] = tested on: endogenous T1R GPCR of HEK cells; assay: Intracellular calcium (Cal-520) in HEK cells stably expressing Nav1.1 with endogenous T1R GPCR; format: cell-based, human; conditions: 10 nM then 20 nM for Aβ1-40 and Aβ1-42
# Method: Specifically, experiments were conducted as follows using HEK cells stably expressing Nav1.1 (FIG. 45). The calcium-sensitive reagent (Cal-520, AAT Bioquest) was incubated at 37° C. for 60 minutes, followed by incubation at room temperature for 30 minutes, and then changes in intracellular calcium were measured using a fluorescence microscope. […] Initially, 10 nM, followed by 20 nM of Aβ1-40 was applied after 5 minutes (arrow). […] A total of 6 cell groups from two independent experiments were measured, averaged by the maximum fluorescence response value, and the mean and standard error (stderr) were calculated and plotted. […] 10 nM, followed by 20 nM of Aβ1-42 was applied after 5 minutes (arrow). […] A total of 12 cell groups from two independent experiments were measured, averaged by the minimum fluorescence response value, and the mean and standard error (stderr) were calculated and plotted. Similar to the experimental results using the patch-clamp method when Aβ peptide was applied to Nav1.5, it was confirmed from intracellular calcium measurements that the effects of Aβ1-40 and Aβ1-42 were different.
# [8] = tested on: HEK Nav1.5 cells; assay: GFP-Tubulin / GFP-Actin cytoskeleton observation in HEK Nav1.5 cells; format: cell-based, human
# Text: To observe the impact of cinacalcet and Aβ1-42 peptide on microfilament (actin) fiber structures, we labeled cells with GFP-Actin (FIG. 34). […] This experimental approach, using GFP-Tubulin, GFP-Actin, or other fluorescent proteins to label microtubules and microfilaments, can be used to screen compounds that regulate the activity of ion channels and neuronal function-controlling proteins. Additionally, simultaneous labeling of tubulin and actin can be achieved using fluorescent antibodies or phalloidin after cell fixation.
# [9] = tested on: Nav1.6; assay: Patch-clamp recording of VGSC current in HEK (Nav1.6) cells; format: cell-based, human; conditions: HEK cells expressing Nav1.6 and Kv1.2
# [10] = tested on: Nav1.5; assay: Patch-clamp (voltage clamp) recording of VGSC current in HEK cells stably expressing Nav1.5; conditions: for IC50: read-out: IC50 (VGSC inhibition)
# [11] = target: T1, T1R2/T1R3 (Homo sapiens, UniProt Q7RTX0+Q8TE23); conditions: Mailliet et al. (2009); read-out: IC50 for inhibition of the sucralose response of the sweet receptor (calcium imaging); cited from earlier work
# T1 construct: host or cells: HEK cells overexpressing T1R2, T1R3 and G16-gust44 (Mailliet et al. 2009; Masuda et al. 2012)
# T1 sequence (Q8TE23 20-839): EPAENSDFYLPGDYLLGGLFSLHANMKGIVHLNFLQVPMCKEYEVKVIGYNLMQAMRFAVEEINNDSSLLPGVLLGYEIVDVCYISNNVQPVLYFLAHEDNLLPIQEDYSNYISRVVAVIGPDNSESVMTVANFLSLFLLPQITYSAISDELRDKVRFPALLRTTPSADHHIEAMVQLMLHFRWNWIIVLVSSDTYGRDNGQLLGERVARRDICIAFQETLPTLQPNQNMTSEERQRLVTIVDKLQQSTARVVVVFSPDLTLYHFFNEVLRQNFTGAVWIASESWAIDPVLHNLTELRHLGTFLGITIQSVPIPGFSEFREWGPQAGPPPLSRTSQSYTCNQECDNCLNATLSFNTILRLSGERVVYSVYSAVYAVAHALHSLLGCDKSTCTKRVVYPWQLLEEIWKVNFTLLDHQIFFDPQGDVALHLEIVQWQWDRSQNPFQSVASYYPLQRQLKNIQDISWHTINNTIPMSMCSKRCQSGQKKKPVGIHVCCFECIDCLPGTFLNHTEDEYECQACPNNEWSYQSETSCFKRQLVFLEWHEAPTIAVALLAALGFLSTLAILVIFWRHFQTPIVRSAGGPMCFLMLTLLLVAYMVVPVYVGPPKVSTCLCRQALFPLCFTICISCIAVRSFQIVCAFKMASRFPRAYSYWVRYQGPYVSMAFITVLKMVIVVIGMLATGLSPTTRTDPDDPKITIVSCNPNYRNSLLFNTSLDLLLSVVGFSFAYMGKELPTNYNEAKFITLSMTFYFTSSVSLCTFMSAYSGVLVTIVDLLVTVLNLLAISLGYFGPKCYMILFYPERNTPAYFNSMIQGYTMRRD
# T1 sequence (Q7RTX0 21-852): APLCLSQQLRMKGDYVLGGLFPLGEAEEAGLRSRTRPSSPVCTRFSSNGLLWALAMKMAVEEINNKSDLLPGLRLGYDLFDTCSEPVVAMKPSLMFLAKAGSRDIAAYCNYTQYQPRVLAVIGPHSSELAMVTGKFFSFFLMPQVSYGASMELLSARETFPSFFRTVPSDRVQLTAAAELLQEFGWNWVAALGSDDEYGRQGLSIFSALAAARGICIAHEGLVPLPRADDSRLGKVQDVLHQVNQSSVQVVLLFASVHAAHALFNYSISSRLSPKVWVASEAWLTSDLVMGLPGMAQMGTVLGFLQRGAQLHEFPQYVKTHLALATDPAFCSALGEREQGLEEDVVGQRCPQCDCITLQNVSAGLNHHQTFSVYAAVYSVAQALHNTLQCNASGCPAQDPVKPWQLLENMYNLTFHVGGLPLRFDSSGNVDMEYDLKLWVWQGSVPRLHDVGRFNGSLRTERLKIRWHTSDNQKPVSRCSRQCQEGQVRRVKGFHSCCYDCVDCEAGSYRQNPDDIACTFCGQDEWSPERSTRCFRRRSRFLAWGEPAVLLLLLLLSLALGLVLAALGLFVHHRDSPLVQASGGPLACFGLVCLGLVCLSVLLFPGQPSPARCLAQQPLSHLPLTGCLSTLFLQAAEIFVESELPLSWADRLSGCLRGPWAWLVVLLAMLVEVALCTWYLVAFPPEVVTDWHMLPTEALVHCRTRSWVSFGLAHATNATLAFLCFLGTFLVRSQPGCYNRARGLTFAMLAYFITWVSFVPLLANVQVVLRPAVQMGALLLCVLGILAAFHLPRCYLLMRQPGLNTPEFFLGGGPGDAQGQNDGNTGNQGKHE
Compound,Effect on VGSC current [1],Effect on VGSC current [2],Effect on VGSC inactivation [3],Effects on VGSCs [3],Effect on voltage gated K+ channel (Kv1.2) current [4],Effect on voltage gated K+ channel (Kv1.2) current ([4]; listed as Aβ42 peptide),Effect on VGSC in T1R3-silenced cells [5],Intracellular calcium after KCl-induced Cav1.2 activation [6],Enhancement of intracellular calcium relative to response to high concentrations of potassium ([6]; n=3),Change in intracellular calcium [7],Microfilament structure (GFP-Actin) [8],Effect on Nav1.6 VGSC current [9],Effect on VGSC current ([10]; 12.5 nM and 25 nM),"Effect on Nav1.5 VGSC current ([10]; 12.5 nM, perforated patch-clamp with Gramicidin)",Shift of I-V plot peak in the hyperpolarizing direction ([10]; 74 nM),"Effect on VGSC current ([10]; 74 nM, whole-cell voltage clamp, listed as Aβ1-42 peptide)",IC50 [11],IC50 ([10]; prepulse −80 mV),IC50 ([10]; prepulse −100 mV),IC50 ([10]; prepulse −120 mV)
"Aβ1-42: amyloid β peptide, Sequence No. 4",enhancement of VGSC was observed,enhancement of VGSC was observed,delays the inactivation,Delay in VGSC inactivation,reduced Kv1.2 potassium current; also recorded: concentration-dependently inhibits Kv1.2 potassium currents,Inhibition of Voltage gated,is lost,further increase in intracellular calcium,about 11%,"biphasic response; also recorded: transiently decreased, slowly recovered, and then began to increase",condensed GFP-Actin structures,amplified; also recorded: enhancing effect,concentration-dependent reductions in VGSC current,enhanced; also recorded: enhancement effect,5-10 mV,decreasing trend; also recorded: suppressed sodium channel currents,–,–,–,–
CCOC(=O)C(C)(C)Oc1ccc(Cl)cc1 [Clofibrate],–,–,–,–,–,–,–,–,–,–,–,–,–,–,–,–,28 µM,580 µM,1200 µM,1040 µM
